# Marks after values point to notes of the source that are not given here.
# How the values were obtained:
# Assay type in all cases: in vitro ADME
# CYP2D6, 3A5, 1A1 and 2C8 = test: Contributions of other CYPs to N-desmethylvandetanib formation in human livers; conditions: with cytochrome b5
# Protocol: The contributions of these enzymes were calculated by relative activity factor because the activities of CYPs in Supersomes™ also need to be considered in addition to the relative contents of CYPs in the livers. […] Of CYPs in human liver, CYP3A4 is the major enzyme present in this human organ (~30% of the CYP hepatic complement), followed by CYP2C9 and 1A2 (~15% and ~13%, respectively), while CYP2C19, 2E1 2A6, 2D6, 2C8 and 3A5 are present in human liver at levels that range from ~2.5% to ~8.5% (see Reference for an overview).
# human recombinant CYP2C8 = test: Vandetanib oxidation by human recombinant CYP2C8 (Supersomes)
# Protocol: Vandetanib was from LC Laboratories (Woburn, MA, USA). Ketoconazole, NADPH, methimazol and other chemicals were all purchased from Sigma-Aldrich (St. Louis, MO, USA). The purity of all chemicals met the standards of American Chemical Society, unless noted otherwise. All animal experiments were conducted in accordance with the Regulations for the Care and Use of Laboratory Animals (311/1997, Ministry of Agriculture, Czech Republic), which follows the Declaration of Helsinki. Male Wistar rats (~125–150 g; AnLab, Czech Republic), male C57BL/6 mice ([…]; CXR Bioscience Ltd., Dundee, UK), and male New Zealand rabbits (2.5–3 kg; AnLab, Czech Republic) were employed as animal models. Animals were placed in cages in temperature- and humidity-controlled rooms, acclimatized for five days and maintained at 22 °C with a 12 h light/dark period. Standardized diet and water were provided ad libitum. Rats, mice and rabbits used to prepare microsomal fraction from untreated animals were sacrificed by cervical dislocation, livers snap-frozen in liquid nitrogen and stored at −80 °C until further processing (see below). […] Protein concentrations in the microsomal fractions were assessed using the bicinchoninic acid protein assay with bovine serum albumin as a standard. […]
# human hepatic microsomes = test: Correlation of CYP- and FMO-linked activities with vandetanib metabolite formation in human hepatic microsomes; conditions: 12 human liver microsomal samples; for Correlation coefficient (r) of metabolite amount with CYP2B6 activity: (S)-mephenytoin-N-demethylase; for Correlation coefficient (r) of metabolite amount with CYP2A6 activity: coumarine-7-hydroxylase; for Correlation coefficient (r) of metabolite amount with CYP2C8 activity: paclitaxel-6α-hydroxylase; for Correlation coefficient (r) of metabolite amount with CYP3A4 activity: testosterone-6β-hydroxylase
# Protocol: Vandetanib was from LC Laboratories (Woburn, MA, USA). Ketoconazole, NADPH, methimazol and other chemicals were all purchased from Sigma-Aldrich (St. Louis, MO, USA). The purity of all chemicals met the standards of American Chemical Society, unless noted otherwise. All animal experiments were conducted in accordance with the Regulations for the Care and Use of Laboratory Animals (311/1997, Ministry of Agriculture, Czech Republic), which follows the Declaration of Helsinki. Male Wistar rats (~125–150 g; AnLab, Czech Republic), male C57BL/6 mice ([…]; CXR Bioscience Ltd., Dundee, UK), and male New Zealand rabbits (2.5–3 kg; AnLab, Czech Republic) were employed as animal models. Animals were placed in cages in temperature- and humidity-controlled rooms, acclimatized for five days and maintained at 22 °C with a 12 h light/dark period. Standardized diet and water were provided ad libitum. Rats, mice and rabbits used to prepare microsomal fraction from untreated animals were sacrificed by cervical dislocation, livers snap-frozen in liquid nitrogen and stored at −80 °C until further processing (see below). For controls, livers of the animals were removed immediately after sacrifice, divided into small pieces (~1 g), snap-frozen in liquid nitrogen, and stored at −80 °C until isolation of microsomal fractions. Pooled microsomes were used for all in vitro experiments in the present study and prepared from 10 livers/group for all animal species following established protocols. Microsomal fractions were stored at −80 °C until analysis. Protein concentrations in the microsomal fractions were assessed using the bicinchoninic acid protein assay with bovine serum albumin as a standard. Male human hepatic microsomes (pooled sample) (sample LOT: 3043885) were from Gentest Corp. (Woburn, MA, USA). Microsomes from livers of twelve human donors were obtained from Gentest Corp. (Woburn, MA, USA) (cat. no. HG43–1, HG103, HG74, HG93, HG24, HG27, HG23, HG32, HK31, HK34, HG03, and HG42). Each human microsomal sample has been characterized for CYP, FMO and protein contents and specific CYP activities by Gentest Corp. We reanalyzed each microsomal preparation for specific CYP, NADPH:CYP reductase (POR) and FMO activities by assays described in the protocols of Gentest Corp. Our data were similar to those reported by Gentest Corp. in their specification sheets. The content of CYP, specific CYP and FMO activities in each human hepatic microsomes [phenacetin-O-deethylation (CYP1A2), coumarin-7-hydroxylation (CYP2A6), (S)-mephenytoin-N-demethylase (CYP2B6), paclitaxel-6α-hydroxylation (CYP2C8), diclofenac-4’-hydroxylation (CYP2C9), (S)-mephenytoin-4′-hydroxylation (CYP2C19), bufuralol-1’-hydroxylation (CYP2D6), chlorzoxazone-6-hydroxylation (CYP2E1), testosterone-6β-hydroxylation (CYP3A4), lauric acid-12-hydroxylation (CYP4A), methyl-p-tolyl sulfide oxidase (FMO)] are shown in Table 2. Human recombinant enzymes were used in the forms of Supersomes™ and obtained from Gentest Corp. In Supersomes™ microsomal fractions were isolated from insect cells that are transfected with baculovirus constructs containing cDNA of human CYP enzymes (CYP1A1/2, 1B1, 2A6, 2B6, 2C8/9/18/19/, 2D6, 2E1, 3A4). These Supersomes™ also express NADPH:CYP oxidoreductase (POR). However, because they are microsomes (particles of broken endoplasmic reticulum), other enzymes (proteins) of the endoplasmic reticulum membrane (like NADH:cytochrome b5 reductase and cytochrome b5) are also expressed at basal levels in these Supersomes™. We also utilized Supersomes™ which over-expressed cytochrome b5, in a molar ratio of CYP to cytochrome b5 of 1 to 5. In Supersomes™ where cytochrome b5 was not over-expressed (see above) pure cytochrome b5 was added to reach a molar ratio of CYP to cytochrome b5 of 1 to 5. Reconstitution of Supersomes™ with purified cytochrome b5 was performed as described previously. […]
compound,measurement,setting,value
COc1cc2c(Nc3ccc(Br)cc3F)ncnc2cc1OCC1CCNCC1 [N-desmethylvandetanib],"contribution in total of other human CYPs (CYP2D6, 3A5, 1A1 and 2C8) to N-desmethylvandetanib formation","CYP2D6, 3A5, 1A1 and 2C8",~ 0.4%
same,fold increase of N-desmethylvandetanib formation by cytochrome b5,human recombinant CYP2C8; CYP2C8 with vs without cytochrome b5,1.6 fold
same,contribution of CYP2C8 to N-desmethylvandetanib formation in human liver,human recombinant CYP2C8; without consideration of cytochrome b5,< 0.3%
same,Correlation coefficient (r) of metabolite amount with Cyt b5,human hepatic microsomes,−0.114
same,Correlation coefficient (r) of metabolite amount with POR,human hepatic microsomes,0.700
same,Correlation coefficient (r) of metabolite amount with Total CYPs,human hepatic microsomes,0.786 **
same,Correlation coefficient (r) of metabolite amount with CYP2C19 activity,human hepatic microsomes; (S)-mephenytoin-4′-hydroxylase,−0.168
same,Correlation coefficient (r) of metabolite amount with CYP2B6 activity,human hepatic microsomes,0.826
same,Correlation coefficient (r) of metabolite amount with CYP2B6 activity,human hepatic microsomes; listed as M1,0.826 ***
same,Correlation coefficient (r) of metabolite amount with CYP2D6 activity,human hepatic microsomes; bufuralol-1′-hydroxylase,0.165
same,Correlation coefficient (r) of metabolite amount with CYP2E1 activity,human hepatic microsomes; chlorzoxazone-6-hydroxylase,0.043
same,Correlation coefficient (r) of metabolite amount with CYP2A6 activity,human hepatic microsomes,0.778
same,Correlation coefficient (r) of metabolite amount with CYP2A6 activity,human hepatic microsomes; listed as M1,0.778 **
same,Correlation coefficient (r) of metabolite amount with CYP2C9 activity,human hepatic microsomes; diclofenac-4′-hydroxylase,−0.034
same,Correlation coefficient (r) of metabolite amount with FMO activity,human hepatic microsomes; methyl-p-tolyl sulfide oxidase,0.270
same,Correlation coefficient (r) of metabolite amount with CYP2C8 activity,human hepatic microsomes,0.747
same,Correlation coefficient (r) of metabolite amount with CYP2C8 activity,human hepatic microsomes; listed as M1,0.747 **
same,Correlation coefficient (r) of metabolite amount with CYP1A2 activity,human hepatic microsomes; phenacetin-O-deethylase,0.018
same,Correlation coefficient (r) of metabolite amount with CYP3A4 activity,human hepatic microsomes,0.984
same,Correlation coefficient (r) of metabolite amount with CYP3A4 activity,human hepatic microsomes; listed as M1,0.984 ***

# Reference: paper PMC6679423 (International Journal of Molecular Sciences, 2019)
